One series relates to M. intracellulare. As to the kind of experiment: Antibacterial activity (MIC) against M. intracellulare. It counts as cell-based, Mycobacterium intracellulare. The method, then: Antibacterial activity of the compounds of the invention was measured in accordance with the method described in the literature of Antimicrob. Agents and Chemother., 38, 2877 (1994), and the results are shown in Tables 3 to 8 in terms of MIC (μg/ml). In the tables, “OFLX” is an abbreviation of “OFLOXAIN”.

The next series relates to M. avium. As to the kind of experiment: Antibacterial activity (MIC) against M. avium. It counts as cell-based, Mycobacterium avium. How it is done:
Antibacterial activity of the compounds of the invention was measured in accordance with the method described in the literature of Antimicrob. […] In the tables, “OFLX” is an abbreviation of “OFLOXAIN”.

Series [1] deals with Mycobacterium tuberculosis (RFP sensitive). Description: Antibacterial activity (MIC) against Mycobacterium tuberculosis (RFP sensitive). The series is classed as cell-based.
A short description of series [2]: Mouse acute toxicity test. The series is classed as in vivo, Male Slc:ddY mice. Particulars: intravenous. The method, then:
Mouse Acute Toxicity Test
Male Slc:ddY mice at age of 5-weeks were used as test animals. For dissolving the compounds, 0.1 mol/l NaOH (in saline) was used. Mice were administered intravenously at a rate of 0.1 ml/30 seconds at a dosing volume of 10 ml/kg.

The test system of another series is reticulocytes (RC). As to the kind of experiment: Peripheral blood micronucleus test. The series is classed as in vivo, Male Slc:ddY mice. Particulars: mice, intravenous. How it is done: Peripheral Blood Micronucleus Test
Used animals and administration method are similar to those in the mouse acute toxicity test. Samples were prepared by collecting 5 μl each of blood sample from the tail vein at 24 and 48 hours after the administration, dropping the blood on a slide at which 0.1% acridine orange solution had been applied in advance, sealing the slide with a cover glass immediately, and allowing it to stand in a refrigerator for 24 hours.

[3] abbreviates: M. intracellulare N-294, Table 4 (series 2).
Setting [4] is: M. intracellulare N-313, Table 4 (series 2).
The mark [5] stands for this setting: M. intracellulare N-338, Table 4 (series 2).
The mark [6] stands for this setting: M. intracellulare N-345, Table 4 (series 2).
Where [7] appears, read: M. avium N-357, Table 4 (series 2).
[8] abbreviates: M. avium N-444, Table 4 (series 2).
Where [9] appears, read: M. avium N-458, Table 4 (series 2).
Where [10] appears, read: M. avium N-472, Table 4 (series 2).
[11] abbreviates: M. tuberculosis H37Rv, Table 6 (series 2).
[12] abbreviates: M. tuberculosis Kurono, Table 6 (series 2).
[13] abbreviates: M. tuberculosis No. 40, Table 6 (series 2).
Where [14] appears, read: M. tuberculosis No. 41, Table 6 (series 2).
The mark [15] stands for this setting: M. tuberculosis No. 43, Table 6 (series 2).
The mark [16] stands for this setting: M. tuberculosis No. 68, Table 6 (series 2).
Where [17] appears, read: M. intracellulare N-338, Table 3.
[18] abbreviates: M. intracellulare N-345, Table 3.

The results in this text go back to patent publication US7176313B2, “Anti acid-fast bacterial agent containing pyridonecarboxylic acids as active ingredient” (Daiichi Pharmaceutical Co., Ltd., priority 2000, dated 2007).

The structures appear in SMILES notation. In brackets after ≈: the same amount, converted by molar mass. Where two headings read alike, the source gives them in different places.

The MIC is the smallest concentration in the dilution series that meets the test's criterion for growth inhibition. For the compound `CCC1CN(c2c(F)cc3c(=O)c(C(=O)O)cn(C4CC4)c3c2OC)CCN1` (stereo not shown) [Compd. 17], the MIC is 2.0 µg/mL (≈ 5.14 µM) against M. intracellulare (setting [3]); 0.25 µg/mL (≈ 0.642 µM) in the series with M. intracellulare (setting [4]); 1.0 µg/mL (≈ 2.57 µM) with M. intracellulare (setting [5]); 1.0 µg/mL (≈ 2.57 µM) against M. intracellulare (setting [6]); 1.0 µg/mL (≈ 2.57 µM) in the series on M. avium (setting [7]); 2.0 µg/mL (≈ 5.14 µM) in the series with M. avium (setting [8]). The minimum inhibitory concentration (MIC) came out at 1.0 µg/mL (≈ 2.57 µM) in the series with M. avium (setting [9]); 8.0 µg/mL (≈ 20.5 µM) against M. avium (setting [10]); 0.12 µg/mL (≈ 0.308 µM) in series [1] (setting [11]); 0.12 µg/mL (≈ 0.308 µM) in series [1] (setting [12]); 0.12 µg/mL (≈ 0.308 µM) in series [1] (setting [13]); 0.06 µg/mL (≈ 0.154 µM) in series [1] (setting [14]). In addition, the MIC in series [1] (setting [15]) amounted to 2.0 µg/mL (≈ 5.14 µM); in series [1] (setting [16]), 0.25 µg/mL (≈ 0.642 µM).

For `CCC1CN(c2c(F)cc3c(=O)c(C(=O)O)cn(C4CC4F)c3c2OC)CCN1` (stereo not shown) [Compd. 18], the MIC worked out at 2.0 µg/mL (≈ 4.91 µM) in the series on M. intracellulare (setting [3]); 0.25 µg/mL (≈ 0.614 µM) in the series on M. intracellulare (setting [4]); 0.50 µg/mL (≈ 1.23 µM) with M. intracellulare (setting [5]); 0.50 µg/mL (≈ 1.23 µM) against M. intracellulare (setting [6]); 0.50 µg/mL (≈ 1.23 µM) in the series on M. avium (setting [7]); 2.0 µg/mL (≈ 4.91 µM) in the series with M. avium (setting [8]). Also, the MIC in the series with M. avium (setting [9]) came to 1.0 µg/mL (≈ 2.45 µM); against M. avium (setting [10]), 8.0 µg/mL (≈ 19.6 µM); in series [1] (setting [11]), 0.12 µg/mL (≈ 0.295 µM); in series [1] (setting [12]) it was 0.12 µg/mL (≈ 0.295 µM); in series [1] (setting [13]), 0.12 µg/mL (≈ 0.295 µM); in series [1] (setting [14]) it was 0.06 µg/mL (≈ 0.147 µM). Moreover, the figures for the MIC in series [1] (setting [15]) and in series [1] (setting [16]) were 1.0 µg/mL (≈ 2.45 µM) and 0.25 µg/mL (≈ 0.614 µM), respectively.

For `C[C@H]1COc2c(N3CCN[C@@H](c4ccccc4)C3)c(F)cc3c(=O)c(C(=O)O)cn1c23` [Compd. 27, 9-Fluoro-2,3-dihydro-3-(S)-methyl-7-oxo-10-[3-(S)-phenyl-1-piperazinyl]-7H-pyrido[1.2.3-de][1,4]benzoxazine-6-carboxylic acid], the “survival of mice after administration” value in series [2] (text summary of Table 9) was “all mice were survived”. The “Mortality (dead/ test)” value in series [2] (mice, 100 mg/kg) is 0/5. In addition, the acute toxicity entry in series [2] (mice, text summary of Table 9) was “relatively weak”. The “MNRC (%) mean ±S.E. 24 hours” value in the series with reticulocytes (RC) (100 mg/kg, 24 hours after administration) worked out at 0.20 ± 0.03%. The “MNRC (%) mean ±S.E. 48 hours” value with reticulocytes (RC) (100 mg/kg, 48 hours after administration) is listed as 0.18 ± 0.04%. In addition, the micronucleus induction result in the series with reticulocytes (RC) ((untreated control: 0.12±0.08)) is recorded as “weak”.

Consider `CC1COc2c(N3CCN(C)CC3)c(F)cc3c(=O)c(C(=O)O)cn1c23` (stereo not shown) [OFLX, OFLOXAIN, reference compound], for which the MIC against M. intracellulare (M. intracellulare N-294, Table 3) was 12.5 µg/mL (≈ 34.6 µM); with M. intracellulare (setting [3]), 8.0 µg/mL (≈ 22.1 µM); in the series on M. intracellulare (M. intracellulare N-313, Table 3), 6.25 µg/mL (≈ 17.3 µM); against M. intracellulare (setting [4]) it was 1.0 µg/mL (≈ 2.77 µM); with M. intracellulare (setting [17]), 25 µg/mL (≈ 69.2 µM); against M. intracellulare (setting [5]), 2.0 µg/mL (≈ 5.53 µM). Also, the MIC with M. intracellulare (setting [18]) came to 25 µg/mL (≈ 69.2 µM); with M. intracellulare (setting [6]) it was 2.0 µg/mL (≈ 5.53 µM); against M. avium (M. avium N-357, Table 3), 3.13 µg/mL (≈ 8.66 µM); with M. avium (setting [7]), 4.0 µg/mL (≈ 11.1 µM); with M. avium (M. avium N-444, Table 3), 25 µg/mL (≈ 69.2 µM); in the series with M. avium (setting [8]), 32 µg/mL (≈ 88.6 µM). For the same compound, the MIC against M. avium (M. avium N-458, Table 3) was found to be 3.13 µg/mL (≈ 8.66 µM); with M. avium (setting [9]), 4.0 µg/mL (≈ 11.1 µM); against M. avium (M. avium N-472, Table 3), 50 µg/mL (≈ 138 µM); against M. avium (setting [10]), 128 µg/mL (≈ 354 µM); in series [1] (M. tuberculosis H37Rv, Table 5), 0.39 µg/mL (≈ 1.08 µM); in series [1] (setting [11]), 1.0 µg/mL (≈ 2.77 µM). Besides, the MIC in series [1] (M. tuberculosis Kurono, Table 5) came to 0.39 µg/mL (≈ 1.08 µM); in series [1] (setting [12]) it was 0.50 µg/mL (≈ 1.38 µM); in series [1] (M. tuberculosis No. 40, Table 5), 0.39 µg/mL (≈ 1.08 µM); in series [1] (setting [13]) it was 1.0 µg/mL (≈ 2.77 µM); in series [1] (M. tuberculosis No. 41, Table 5), 0.10 µg/mL (≈ 0.277 µM); in series [1] (setting [14]), 0.25 µg/mL (≈ 0.692 µM). Moreover, the MIC in series [1] (setting [15]) was 8.0 µg/mL (≈ 22.1 µM); in series [1] (M. tuberculosis No. 68, Table 5), 0.39 µg/mL (≈ 1.08 µM); in series [1] (setting [16]), 1.0 µg/mL (≈ 2.77 µM).

For the compound `CO[C@H]1/C=C/O[C@@]2(C)Oc3c(C)c(O)c4c(O)c(c(/C=N/N5CCN(C)CC5)c(O)c4c3C2=O)NC(=O)/C(C)=C\C=C\[C@H](C)[C@H](O)[C@@H](C)[C@@H](O)[C@@H](C)[C@H](OC(C)=O)[C@@H]1C` [RFP, rifampicin, reference compound], the MIC is 3.13 µg/mL (≈ 3.8 µM) against M. intracellulare (setting [17]); 3.13 µg/mL (≈ 3.8 µM) in the series with M. intracellulare (setting [18]); 0.78 µg/mL (≈ 0.948 µM) in the series on M. intracellulare (Mycobacterium intracellulare, M. intracellulare N-313, Table 3, read-out: MIC); 3.13 µg/mL (≈ 3.8 µM) in the series on M. intracellulare (Mycobacterium intracellulare, M. intracellulare N-294, Table 3, read-out: MIC); 50 µg/mL (≈ 60.8 µM) in the series on M. avium (Mycobacterium avium, M. avium N-357, Table 3, read-out: MIC); 100 µg/mL (≈ 122 µM) with M. avium (Mycobacterium avium, M. avium N-458, Table 3, read-out: MIC). The MIC came out at 0.2 µg/mL (≈ 0.243 µM) in series [1] (Mycobacterium tuberculosis, H37RV, M. tuberculosis H37Rv, Table 5, read-out: MIC); 0.1 µg/mL (≈ 0.122 µM) in series [1] (Mycobacterium tuberculosis, M. tuberculosis Kurono, Table 5, read-out: MIC); 0.1 µg/mL (≈ 0.122 µM) in series [1] (Mycobacterium tuberculosis, M. tuberculosis No. 40, Table 5, read-out: MIC); 0.05 µg/mL (≈ 0.0608 µM) in series [1] (Mycobacterium tuberculosis, M. tuberculosis No. 41, Table 5, read-out: MIC); 3.13 µg/mL (≈ 3.8 µM) in series [1] (Mycobacterium tuberculosis, M. tuberculosis No. 43, Table 5, read-out: MIC); 3.13 µg/mL (≈ 3.8 µM) in series [1] (Mycobacterium tuberculosis, M. tuberculosis No. 68, Table 5, read-out: MIC).
